Results on 25 compounds are retold here after US8461328B2, “Tricyclic heterocyclic compounds, compositions and methods of use thereof” (Genentech, Inc., priority 2010, dated 2013).

pKi: −log10 of the molar value. Read-outs that look alike come from different tables or passages of the source.

What all share (assay type): biochemical
The target in one assay is T1, TYK2 (Homo sapiens, UniProt P29597).
T1 construct: made in house; host or cells: SF9 insect cells (baculovirus)
T1 sequence (P29597 873-1187): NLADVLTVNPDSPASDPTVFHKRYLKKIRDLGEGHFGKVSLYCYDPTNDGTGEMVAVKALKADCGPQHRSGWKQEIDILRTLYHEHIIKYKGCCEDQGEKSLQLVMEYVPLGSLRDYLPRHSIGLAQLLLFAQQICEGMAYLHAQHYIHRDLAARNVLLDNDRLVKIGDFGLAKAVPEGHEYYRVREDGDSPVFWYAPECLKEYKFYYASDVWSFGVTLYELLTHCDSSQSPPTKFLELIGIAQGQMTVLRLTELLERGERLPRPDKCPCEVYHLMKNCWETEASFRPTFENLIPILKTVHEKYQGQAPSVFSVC
In words: TYK2 inhibition (Table 4).

Another assay deals with T2, JAK1 (Homo sapiens, UniProt P23458).
T2 construct: made in house; host or cells: SF9 insect cells (baculovirus)
T2 sequence (P23458 852-1154): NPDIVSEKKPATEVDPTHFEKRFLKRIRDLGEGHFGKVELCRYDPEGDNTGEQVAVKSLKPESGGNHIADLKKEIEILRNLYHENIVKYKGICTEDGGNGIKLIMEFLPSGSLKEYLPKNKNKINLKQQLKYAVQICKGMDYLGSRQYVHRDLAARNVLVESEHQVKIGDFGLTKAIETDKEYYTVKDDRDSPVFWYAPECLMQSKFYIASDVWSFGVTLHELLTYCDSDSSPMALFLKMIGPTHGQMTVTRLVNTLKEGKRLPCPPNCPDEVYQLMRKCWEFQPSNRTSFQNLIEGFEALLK
In words: JAK1 inhibition (Table 4).

The next assay concerns the target T3, JAK2 (Homo sapiens, UniProt O60674).
T3 construct: made in house; host or cells: SF9 insect cells (baculovirus)
In words: JAK2 inhibition (Table 4). The note with it: read-out: JAK2 Ki.

The target of a further assay is T4, JAK3 (Homo sapiens, UniProt P52333).
T4 construct: made in house; host or cells: SF9 insect cells (baculovirus)
T4 sequence (P52333 783-1124): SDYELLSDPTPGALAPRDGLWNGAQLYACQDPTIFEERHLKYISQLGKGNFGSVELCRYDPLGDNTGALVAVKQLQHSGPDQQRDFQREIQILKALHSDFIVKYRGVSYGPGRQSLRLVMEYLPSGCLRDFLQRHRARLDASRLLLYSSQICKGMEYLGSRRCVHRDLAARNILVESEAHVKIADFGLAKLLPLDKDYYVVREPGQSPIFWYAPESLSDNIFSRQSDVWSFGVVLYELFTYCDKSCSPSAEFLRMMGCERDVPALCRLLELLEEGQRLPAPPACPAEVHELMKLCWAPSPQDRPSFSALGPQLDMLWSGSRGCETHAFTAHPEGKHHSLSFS
Briefly: JAK3 inhibition (Table 4). The conditions noted are these: read-out: JAK3 Ki.

T3 sequence (O60674 812-1132): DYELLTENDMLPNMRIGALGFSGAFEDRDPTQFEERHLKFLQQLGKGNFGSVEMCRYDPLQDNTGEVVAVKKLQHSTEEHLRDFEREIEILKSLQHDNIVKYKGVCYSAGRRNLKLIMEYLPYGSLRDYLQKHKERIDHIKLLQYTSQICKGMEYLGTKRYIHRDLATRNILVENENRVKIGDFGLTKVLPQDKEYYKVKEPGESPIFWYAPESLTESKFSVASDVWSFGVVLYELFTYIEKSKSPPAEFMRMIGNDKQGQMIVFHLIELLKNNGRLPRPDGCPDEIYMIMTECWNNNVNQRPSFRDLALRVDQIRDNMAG

The pKi is −log10 of the Ki, conventionally taken in molar units. As for `CNC(=O)OC1CCC(n2cnc3cnc4[nH]ccc4c32)CC1` (stereo not shown) [Example 769, Methyl-carbamic acid 4-(6H-1,3,5,6-tetraaza-as-indacen-1-yl)-cyclohexyl ester], the pKi on TYK2 is 7.20; at JAK1 (read-out: JAK1 Ki), 8.02; at JAK2, 7.78; at JAK3, 6.98.

In the case of `O=C(Cc1nc2cnc3[nH]ccc3c2n1C1CCCOC1)N1CCSCC1` (racemic) [Example 985, 2-[1-(Tetrahydro-pyran-3-yl)-1,6-dihydro-1,3,5,6-tetraaza-as-indacen-2-yl]-1-thiomorpholin-4-yl-ethanone], the pKi at TYK2 was 6.76; at JAK1 (read-out: JAK1 Ki), 7.71; at JAK2, 6.44; at JAK3 it was 6.84.

Turning to `CNC(=O)OC1CCC(n2c(C)nc3cnc4[nH]ccc4c32)CC1` (stereo not shown) [Example 751, methyl-carbamic acid 4-(2-methyl-6H-1,3,5,6-tetraaza-as-indacen-1-yl)-cyclohexyl ester], the negative-log Ki (pKi) is 7.08 at TYK2, 8.11 at JAK1 (read-out: JAK1 Ki), 7.55 on JAK2 and 7.10 at JAK3.

For the compound `c1cc2c(ncc3ncn(C4CCN(Cc5cocn5)CC4)c32)[nH]1` [Example 90, 1-(1-Oxazol-4-ylmethyl-piperidin-4-yl)-1,6-dihydro-1,3,5,6-tetraaza-as-indacene], the negative logarithm of the Ki (pKi) is 7.20 on TYK2, 8.17 at JAK1 (read-out: JAK1 Ki), 8.06 on JAK2 and 7.33 on JAK3.

As to `O=C(Cc1nc2cnc3[nH]ccc3c2n1C1CCNCC1)NC1CCCC1` [Example 265, N-Cyclopentyl-2-(1-piperidin-4-yl-1,6-dihydro-1,3,5,6-tetraaza-as-indacen-2-yl)-acetamide], the negative-log Ki (pKi) is 6.24 at TYK2, 7.53 at JAK1 (read-out: JAK1 Ki), 6.39 at JAK2 and 7.18 on JAK3.

Regarding `O=C(N[C@H]1CC[C@H](n2cnc3cnc4[nH]ccc4c32)CC1)C1CC1` [Example 572, trans Cyclopropanecarboxylic acid [4-(6H-1,3,5,6-tetraaza-as-indacen-1-yl)-cyclohexyl]-amide], the pKi on TYK2 is 6.92; on JAK1 (read-out: JAK1 Ki), 7.94; on JAK2, 7.57; at JAK3, 6.70.

With `CC(=O)N1CCC(c2nc3cnc4[nH]ccc4c3n2C2CCN(CCC#N)CC2)C1` (racemic) [Example 390, 3-{4-[2-(1-Acetyl-pyrrolidin-3-yl)-6H-1,3,5,6-tetraaza-as-indacen-1-yl]-piperidin-1-yl}-propionitrile], the pKi on TYK2 is 6.35; at JAK1 (read-out: JAK1 Ki), 7.67; on JAK2 it was 7.12; at JAK3, 7.32.

Take `FC(F)(F)c1nc2cnc3[nH]ccc3c2n1[C@@H]1CCCN(Cc2ccccc2)C1` [Example 287]: the pKi at TYK2 was 5.69; on JAK1 (JAK1 Ki), 6.55; on JAK2, 6.84; on JAK3, 6.09.

For the compound `O=S1(=O)CCN(C2CCC(n3cnc4cnc5[nH]ccc5c43)CC2)CC1` (stereo not shown) [Example 766, 1-[4-(1,1-Dioxo-thiomorpholin-4-yl)-cyclohexyl]-1,6-dihydro-1,3,5,6-tetraaza-as-indacene], the pKi at TYK2 is 7.68; on JAK1 (read-out: JAK1 Ki), 9.01; on JAK2, 8.51; on JAK3, 7.16.

For the compound `COC1CN(CCC#N)CCC1n1c(C)nc2cnc3[nH]ccc3c21` (racemic) [Example 538, 3-[3-Methoxy-4-(2-methyl-6H-1,3,5,6-tetraaza-as-indacen-1-yl)-piperidin-1-yl]-propionitrile], the pKi at TYK2 was 8.06; on JAK1 (read-out: JAK1 Ki) it was 9.07; at JAK2, 9.05; on JAK3, 8.40.

Regarding `OC1CCCC(n2nnc3cnc4[nH]ccc4c32)C1` (single isomer, unassigned) [Example 551, 3-(6H-1,2,3,5,6-Pentaaza-as-indacen-1-yl)-cyclohexanol], the pKi is 7.05 on TYK2, 7.87 on JAK1 (read-out: JAK1 Ki), 7.72 at JAK2 and 6.89 at JAK3.

Take `FC(F)(F)CCN1CCC(n2cnc3cnc4[nH]ccc4c32)CC1` [Example 339, 1-[1-(3,3,3-Trifluoro-propyl)-piperidin-4-yl]-1,6-dihydro-1,3,5,6-tetraaza-as-indacene]: the pKi on TYK2 is 7.65; on JAK1 (read-out: JAK1 Ki), 8.41; on JAK2, 8.11; at JAK3, 7.39.

In the case of `O=C(CN1CCOCC1)N1CCC(n2cnc3cnc4[nH]ccc4c32)CC1` [Example 77, 2-Morpholin-4-yl-1-[4-(6H-1,3,5,6-tetraaza-as-indacen-1-yl)-piperidin-1-yl]ethanone], the pKi on TYK2 was 5.71; on JAK1 (read-out: JAK1 Ki), 7.19; on JAK2, 6.73; on JAK3, 5.66.

`CS(=O)(=O)N1CCC(n2nnc3cnc4[nH]ccc4c32)CC1` [Example 233, 1-(1-Methanesulfonyl-piperidin-4-yl)-1,6-dihydro-1,2,3,5,6-pentaaza-as-indacene]: the pKi on TYK2 is 7.11; on JAK1 (read-out: JAK1 Ki) it was 8.30; on JAK2, 8.11; on JAK3 it was 6.60.

Consider “(R)-1-{1-[1-(3,5-Dimethyl-1H-pyrazol-4-ylmethyl)-piperidin-4-yl]-1,6-dihydro-1,3,5,6-tetraaza-as-indacen-2-yl}-ethanol [Example 904]”, for which the pKi is 5.58 at TYK2, 6.68 on JAK1 (read-out: JAK1 Ki), 5.87 at JAK2 and 5.98 at JAK3.

For `CCS(=O)(=O)N1CCC(C)(n2cnc3cnc4[nH]ccc4c32)CC1` [Example 757, 1-(1-Ethanesulfonyl-4-methyl-piperidin-4-yl)-1,6-dihydro-1,3,5,6-tetraaza-as-indacene], the pKi on TYK2 was 7.47; at JAK1 (read-out: JAK1 Ki), 8.69; on JAK2, 8.00; on JAK3 it was 7.08.

On to `N#CCCN1CCC(n2c(Cc3ccc(C(N)=O)cc3)nc3cnc4[nH]ccc4c32)CC1` [Example 406, 4-{1-[1-(2-Cyano-ethyl)-piperidin-4-yl]-1,6-dihydro-1,3,5,6-tetraaza-as-indacen-2-ylmethyl}-benzamide], for which the pKi at TYK2 was 6.19; on JAK1 (read-out: JAK1 Ki), 7.17; on JAK2 it was 6.69; on JAK3, 6.21.

As for `CC(O)c1nc2cnc3[nH]ccc3c2n1C1CC2CCC1O2` (stereo not drawn) [Example 848, endo-1-[1-(7-Oxa-bicyclo[2.2.1]hept-2-yl)-1,6-dihydro-1,3,5,6-tetraaza-as-indacen-2-yl]-ethanol], the pKi at TYK2 is 6.67; at JAK1 (read-out: JAK1 Ki) it was 6.92; on JAK2, 6.81; at JAK3 it was 7.14.

For the compound `Cc1nc2cnc3[nH]ccc3c2n1C1CCC2CC(=O)NC2C1` (single isomer, unassigned) [Example 112, 6-(2-Methyl-6H-1,2,3,5,6-tetraaza-as-indacen-1-yl)-octahydro-indol-2-one], the pKi on TYK2 is 7.76; at JAK1 (read-out: JAK1 Ki), 8.39; on JAK2 it was 7.97; on JAK3, 7.20.

In the case of `CC(F)CN1CCC(n2c([C@@H](C)O)nc3cnc4[nH]ccc4c32)CC1` (stereo partly drawn) [Example 697, (R)-1-{1-[1-(2-Fluoro-propyl)-piperidin-4-yl]-1,6-dihydro-1,2,3,5,6-tetraaza-as-indacen-2-yl}-ethanol], the pKi on TYK2 was 7.49; on JAK1 (read-out: JAK1 Ki), 8.51; on JAK2, 7.19; at JAK3 it was 7.44.

For the compound `O=C(Cc1nc2cnc3[nH]ccc3c2n1C1CCNCC1)N1CC(F)(F)C1` [Example 269, 1-(3,3-Difluoro-azetidin-1-yl)-2-(1-piperidin-4-yl-1,6-dihydro-1,3,5,6-tetraaza-as-indacen-2-yl)-ethanone], the pKi was 5.77 on TYK2, 7.07 on JAK1 (read-out: JAK1 Ki), 5.88 on JAK2 and 6.61 on JAK3.

Regarding `N#CC1(C(=O)N2CCC[C@@H](n3cnc4cnc5[nH]ccc5c43)C2)CCC1` [Example 316, 1-[(R)-3-(6H-1,3,5,6-Tetraaza-as-indacen-1-yl)-piperidine-carbonyl]-cyclobutanecarbonitrile], the pKi on TYK2 is 7.75; on JAK1 (read-out: JAK1 Ki), 8.56; at JAK2, 8.49; at JAK3, 8.03.

As to `N#CCCN1CCC(n2c(C3CC3(F)F)nc3cnc4[nH]ccc4c32)CC1` (racemic) [Example 404, 3-{4-[2-(2,2-Difluoro-cyclopropyl)-6H-1,3,5,6-tetraaza-as-indacen-1-yl]-piperidin-1-yl}-propionitrile], the pKi on TYK2 is 7.00; on JAK1 (read-out: JAK1 Ki) it was 8.14; on JAK2, 7.74; at JAK3, 7.53.

For the compound `O=C(N[C@H]1CC[C@H](n2cnc3cnc4[nH]ccc4c32)CC1)N1CCOCC1` [Example 593, Trans Morpholine-4-carboxylic acid [4-(6H-1,2,3,5,6-tetraaza-as-indacen-1-yl)-cyclohexyl]-amide], the pKi was 6.40 on TYK2, 7.57 at JAK1 (read-out: JAK1 Ki), 7.44 at JAK2 and 6.50 at JAK3.

For the compound `COCC(=O)NCc1nc2cnc3[nH]ccc3c2n1C1CCN(CCC#N)CC1` [Example 503, N-{1-[1-(2-Cyano-ethyl)-piperidin-4-yl]-1,6-dihydro-1,3,5,6-tetraaza-as-indacen-2-ylmethyl}-2-methoxy-acetamide], the pKi on TYK2 is 7.30; on JAK1 (read-out: JAK1 Ki), 8.60; on JAK2 it was 7.98; on JAK3, 7.71.
